# Data from publication PMC11459967 (Antimicrobial Agents and Chemotherapy, 2024).
# Where two headings read alike, the source gives them in different places.
# Assays:
# thrombin = target: T1, thrombin (Homo sapiens, UniProt P00734); assay: Thrombin enzymatic assay; format: biochemical
# T1 construct: purchased RD Systems 1473-SE-010
# Description: Assays contained 25 pM thrombin (RD Systems: 1473-SE-010), 25 µM BOC-PVR-AMC, and 100 nL of test compound in 100% DMSO, in a total of 10 µL of 50 mM Tris, pH 7.0, 100 mM NaCl, 10 mM CaCl2, and 0.005% Tween20 in black low volume 384-well plates. The production of AMC was followed at 5-min intervals at 355 nm excitation and 460 nm emission in an Envision microplate reader (PerkinElmer). Reaction rates were determined by linear regression of the resulting progress curves. […] Nonlinear regression fits of the data to a one-site dose-response curve were performed using XLFit (IDBS).
# cathepsin L = target: T2, cathepsin L (Homo sapiens, UniProt P07711); assay: Cathepsin L enzymatic assay; format: biochemical
# T2 construct: purchased RD Systems 952-CY-010
# Description: The assays contained 25 pM cathepsin L (RD Systems: 952-CY-010), 5 µM LR-AMC, 100 nL of test compound in 100% DMSO, in a total of 10 µL of 20 mM potassium phosphate, pH 6.0, 150 mM NaCl, 0.005% Tween20, and 5 mM DTT in black low volume 384-well plates. The production of AMC was followed at 5-min intervals with excitation at 355 nm and emission at 460 nm using an Envision microplate reader (PerkinElmer). Reaction rates were determined by linear regression of the resulting progress curves. […] Nonlinear regression fits of the data to a one-site dose-response curve were performed using XLFit (IDBS).
# cathepsin B = target: T3, cathepsin B (Homo sapiens, UniProt P07858); assay: Cathepsin B enzymatic assay; format: biochemical
# T3 construct: purchased RD Systems 953-CY-010
# Description: Assays contained 0.6 nM cathepsin B (RD Systems: 953-CY-010), 25 µM Z-LR-AMC, and 100 nL of test compound in 100% DMSO in a total of 10 µL of 50 mM MES, pH 5.0, 150 mM NaCl, 0.05% CHAPS, and 5 mM DTT in black low volume 384-well plates. The production of AMC was followed at 5-min intervals at 355 nm excitation and 460 nm emission in an Envision microplate reader (PerkinElmer). Reaction rates were determined by linear regression of the resulting progress curves. Rates were normalized to percent inhibition, where 0% is equal to the rate in the presence enzyme, and 100% is equal to the rate in the absence of enzyme. Nonlinear regression fits of the data to a one-site dose-response curve were performed using XLFit (IDBS).
# [1] = Mouse liver microsome stability assay; conditions: microsomes
# Description: Test compounds (0.5 µM) were incubated with liver microsomes ([…]) and an NADPH-regenerating system (cofactor solution), and samples were taken at various time points, quenched with an acetonitrile solution containing an internal standard, and then analyzed by liquid chromatography with tandem mass spectrometry (LC-MS/MS). […] For the 0-min time point, 135 µL of acetonitrile (ACN) containing internal standard (IS) was added to the wells of a 0-min plate, followed by the addition of 15 µL of NADPH stock solution (6 mM). All other plates were pre-incubated at 37°C for 5 min. Fifteen microliters of NADPH stock solution (6 mM) was then added to the plates to start the reaction and timing. […] Fifty microliters of supernatant was then transferred from each well into a 96-well sample plate containing 50 µL of ultra-pure water for LC/MS analysis.
# [2] = Hamster pharmacokinetics (plasma and lung); format: in vivo
# Description: Fig 10 […] pharmacokinetics of 1. Mean plasma and lung concentration-time profiles of compound 1 after single i.p. dose at 10 mg/kg in male hamster (N = 3/time point). In-life parameters of compound 1 are provided for plasma and lung.
# To monitor pharmacokinetics of compound 1 following single intraperitoneal administration to male hamsters, compound 1 was prepared prior to use in 10% DMSO, 10% Solutol HS 15, plus 80% PBS in a concentration of 2 mg/mL by weighing 19.65 mg of compound 1 into a new vial and then adding 0.982 mL DMSO into the vial containing the compound and vortexing the vial for 2 min. In addition, 0.982 mL Solutol HS 15 was then added into the vial containing the compound, and the vial was vortexed for 2 min. Also, 7.860 mL of PBS was then added into the vial which was further vortexed for 3 min and sonicated for 0.5 min. Male hamsters weighing 89 g–104 g (N = 18) were purchased from Beijing Weitong Lihua Laboratory Animal Co. Ltd. Hamsters were fasted overnight and fed at 4 h post-dosing. The compound was administered 10 mg/kg (5 mL/kg) via intraperitoneal injection. Sampling was done at 0.25, 0.5, 1, 2, 4, and 6 h post dose, six time points, by terminal bleeding for plasma and lung at each time point. Approximately 150 µL blood/time point was collected into the K2EDTA tube via the jugular vein. The blood sample was put on wet ice and centrifuged to obtain a plasma sample (2,000 g, 5 min under 4°C) within 15 min. Lung collection was performed by making a mid-line incision in the animals’ chest and abdomen, the skin was retracted, and the lung was exposed after cutting off the ribs and removing other organs using surgical scissors and forceps. The lung was removed using surgical scissors and then rinsed with cold saline. The lung was placed in screw-top tubes and then stored under −70°C until analysis. Lung tissue was homogenized for 2 min with two volumes (vol/wt) of PBS (pH 7.4) immediately before analysis by LC-MS/MS.
# [3] = test system: SARS-CoV-2 Beta (B.1.351); assay: microbe, parasite or virus in culture; format: cell-based; conditions: Severe acute respiratory syndrome coronavirus 2, Vero C1008, 48 h; read-out: EC50 viral high-content imaging assay
# [4] = test system: SARS-CoV-2 Omicron (B.1.1.529); assay: microbe, parasite or virus in culture; format: cell-based; conditions: Severe acute respiratory syndrome coronavirus 2, Vero C1008, 48 h; read-out: EC50 viral high-content imaging assay
# [5] = test system: SARS-CoV-2 (B.1.1.529/Omicron); conditions: for mean reduction in SARS-CoV-2 genomic RNA (E gene) in lung tissue: 1 at 100 mg/kg, PF-332 at 50 mg/kg i.p. b.i.d.
# SARS-CoV-2 WT (WA1/2020) = assay: Live virus high-content imaging assay (nucleocapsid expression), WT; format: cell-based; conditions: Severe acute respiratory syndrome coronavirus 2, Vero C1008, Vero-E6 cells, 48 h infection, read-out: EC50 viral high-content imaging assay
# [6] = test system: SARS-CoV-2 Delta (B.1.617); assay: microbe, parasite or virus in culture; format: cell-based; conditions: Severe acute respiratory syndrome coronavirus 2, Vero C1008, 48 h; read-out: EC50 viral high-content imaging assay
# SARS-CoV-2 Mpro = SARS-CoV-2 Mpro (Severe acute respiratory syndrome coronavirus 2, UniProt P0DTC1); assay: biochemical; format: biochemical; conditions: Mpro enzymatic assay
# [7] = enzyme assay, at least 10-point dose-response curves in duplicate, read-out: Thrombin IC50
# [8] = enzyme assay, at least 10-point dose-response curves in duplicate, read-out: CatL IC50
# [9] = enzyme assay, at least 10-point dose-response curves in duplicate, read-out: CatB IC50
# [10] = single IP dose at 10 mg/kg in male hamster
# [11] = single i.p. dose at 10 mg/kg in male hamster
# T2 sequence (P07711 114-333): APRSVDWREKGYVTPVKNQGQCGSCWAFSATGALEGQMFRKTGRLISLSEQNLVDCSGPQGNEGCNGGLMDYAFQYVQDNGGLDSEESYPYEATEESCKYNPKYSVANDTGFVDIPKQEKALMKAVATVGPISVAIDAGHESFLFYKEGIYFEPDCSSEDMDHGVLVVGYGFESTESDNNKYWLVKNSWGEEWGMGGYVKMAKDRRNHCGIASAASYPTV
smiles,measurement,setting,value
O=C(CN1C(=O)[C@@H](NC(=O)OCc2ccccc2)COc2ccccc21)N[C@@H](C[C@@H]1CCNC1=O)C(=O)COc1cc(C(F)(F)F)nn1-c1ccc(F)cc1 [Compound 21],IC50,thrombin; [7],> 32000 nM
same,IC50,cathepsin L; [8],> 32000 nM
same,IC50,cathepsin B; [9],27000 nM
O=C(CN1C(=O)[C@@H](NC(=O)c2ccccc2)COc2ccccc21)N[C@@H](C[C@@H]1CCNC1=O)C(=O)COC(=O)c1c(Cl)cccc1Cl [Compound 19],half-life at 0.5 µM,[1],< 2 min
same,IC50,cathepsin B; [9],13000 nM
O=C(CN1C(=O)C(NC(=O)OCc2ccccc2)COc2ccccc21)NC(CC1CCNC1=O)C(=O)COC(=O)c1c(Cl)cccc1Cl (centres unmarked) [Compound 1],IC50,thrombin; [7],> 32000 nM
same,Kp,"[2]; lung / plasma, single IP dose at 10 mg/kg in male hamster, read-out: AUClung/AUCplasma",3.2
same,half-life,"[2]; lung, single IP dose at 10 mg/kg in male hamster, read-out: lung T1/2 (converted)",48.6 min
same,Tmax,"[2]; lung, single IP dose at 10 mg/kg in male hamster, read-out: lung Tmax",30 min
same,Cmax,"[2]; plasma, single IP dose at 10 mg/kg in male hamster",990 ng/mL
same,AUC(0-inf),"[2]; plasma, single IP dose at 10 mg/kg in male hamster, read-out: plasma AUCINF",1830 ng·h/mL
same,AUC(0-t),"[2]; plasma, single IP dose at 10 mg/kg in male hamster, read-out: plasma AUClast",1820 ng·h/mL
same,half-life,"[2]; plasma, single IP dose at 10 mg/kg in male hamster, read-out: plasma T1/2 (converted)",44 min
same,Tmax,"[2]; plasma, single IP dose at 10 mg/kg in male hamster, read-out: plasma Tmax",15 min
same,lung AUCINF,[2]; [10],5854 ng·h/g
same,lung AUClast,[2]; [10],5818 ng·h/g
same,lung Cmax,[2]; [10],3623 ng/g
same,clinical symptoms during the in-life phase,[2]; [11],no abnormal clinical symptoms observed
same,concentration achieved in the lung,[2]; [11],about 8 µM
same,EC50,[3],3100 nM
same,IC50,"cathepsin L; as stated in text: no substantial inhibition, read-out: cathepsin L IC50",> 15000 nM
same,IC50,cathepsin L; [8],> 32000 nM
same,half-life at 0.5 µM,[1],< 2 min
same,EC50,[4],900 ± 900 nM
same,mean reduction in SARS-CoV-2 sub-genomic RNA (N gene) in lung tissue,"[5]; […], 100 mg/kg i.p. b.i.d., versus vehicle, P = 0.002",2.0 log
same,mean reduction in SARS-CoV-2 genomic RNA (E gene) in lung tissue,"[5]; […], versus vehicle",0.5 log
same,lung histopathology scores (H&E) compared to vehicle-treated SGH,"[5]; hamster, in vivo",did not observe any significant difference
same,reduction in SARS-CoV-2 viral titer from lung tissue,"[5]; hamster, in vivo",32.6%
same,toxicities or behavioral abnormalities during dosing,"[5]; hamster, in vivo",no obvious toxicities or behavioral abnormalities
same,IC50,"cathepsin B; as stated in text: no substantial inhibition, read-out: cathepsin B IC50",> 15000 nM
same,IC50,cathepsin B; [9],18000 nM
same,EC50,SARS-CoV-2 WT (WA1/2020),2100 ± 2100 nM
same,EC50,[6],3000 ± 2400 nM
"COc1cccc2[nH]c(C(=O)N[C@@H](CC(C)C)C(=O)N[C@@H](C[C@@H]3CCNC3=O)C(=O)COC(=O)c3c(Cl)cccc3Cl)cc12 [Compound 18, reference compound]",time to achieve maximum inhibition,SARS-CoV-2 Mpro,≤ 10 min
same,IC50,cathepsin L; [8],1.8 nM
same,half-life at 0.5 µM,[1],< 2 min
same,IC50,cathepsin B; [9],24 ± 7.5 nM
N[C@H]1COc2ccccc2N(CC(=O)N[C@@H](C[C@@H]2CCNC2=O)C(=O)COC(=O)c2c(Cl)cccc2Cl)C1=O [Compound 9],half-life at 0.5 µM,[1]; mouse,< 2 min
"CC(C)C[C@H](NC(=O)OCc1ccccc1)C(=O)N[C@@H](C[C@@H]1CCNC1=O)C(O)S(=O)(=O)O (some centres unmarked) [GC-376, reference compound]",IC50,thrombin,> 10000 nM
same,IC50,cathepsin L,0.05 nM
same,EC50,[4],400 ± 500 nM
same,IC50,cathepsin B,37 ± 15 nM
same,EC50,SARS-CoV-2 WT (WA1/2020),300 ± 500 nM
same,EC50,[6],600 nM
"CC(C)(C)[C@H](NC(=O)C(F)(F)F)C(=O)N1C[C@H]2[C@@H]([C@H]1C(=O)N[C@H](C#N)C[C@@H]1CCNC1=O)C2(C)C [nirmatrelvir, reference compound]",reduction in N sub-genomic RNA in lung tissue,"[5]; […], 50 mg/kg i.p. b.i.d., versus vehicle",5.2 fold
same,mean reduction in SARS-CoV-2 genomic RNA (E gene) in lung tissue,"[5]; […], versus vehicle",3.0 log
O=C(CN1C(=O)[C@@H](NC(=O)c2ccc3ccccc3n2)COc2ccccc21)N[C@@H](C[C@@H]1CCNC1=O)C(=O)COC(=O)c1c(Cl)cccc1Cl [Compound 20],IC50,thrombin; [7],> 32000 nM
same,IC50,cathepsin L; [8],23100 nM
same,half-life at 0.5 µM,[1],< 2 min
same,IC50,cathepsin B; [9],1800 nM
